Entries after “also recorded” stand apart in the source; their conditions may differ. Where two headings read alike, the source gives them in different places.

Data set [1] relates to hERG. To be noted: preclinical testing; cited from earlier work.
Data set [2] has as its system Bruton tyrosine kinase (BTK). Further details: method as in PMID 33093447. To be noted: models of human lymphoma; cited from earlier work.
Data set [3] can be described thus: Pharmacokinetic analysis of plasma after oral PCLX-001 (UHPLC-MS, two-compartment model). Format: in vivo, human. To be noted: patient. The protocol:
The primary pharmacokinetic analysis endpoints were:
Tmax is the time at which the maximum plasma concentration of PCLX-001 is achieved.
Cmax is the maximum plasma concentration of PCLX-001.
The patient was dosed with oral doses of PCLX-001 20 mg. After dosing, the blood samples (3 mL volume) were serially collected into heparinized tubes from a right forearm butterfly cannula. All blood fluid specimens were frozen and later assayed using a validated UHPLC-MS detection method.
PK Solver 2.0 freeware (https://www.boomer.org/boomer/software/pksolver.zip; accessed 26 November 2021) was used to determine the single dose pharmacokinetic parameters using a two-compartment model. The terminal phase rate constant (λz) was estimated by applying exponential linear regression to the concentrations in the terminal phase, and the apparent terminal half-life (t 1/2) was estimated as 0.693/λz. The area under the concentration (AUC) vs. time curve from the time of injection to the last (Clast) measured concentration (AUC0-tlast) was calculated. […] Oral body clearance (CLoral) was calculated as the ratio of the dose to the AUC0–∞. The area under the first moment concentration vs. time curve (AUMC) was estimated as the sum of the area under the C × t vs. t curve from time zero to Clast, plus the ratios of Clast × t/λz and Clast/λz 2. The mean residence time (MRT) was calculated as the ratio of AUMC to AUC0–∞). The apparent volume of distribution of steady-state (Vdss) was calculated as the product of CL × MRT.

The target in data set [4] is T1, NMT2 (Homo sapiens, UniProt O60551).
T1 construct: homemade monoclonal antibodies AF-700-NMT1(clone 6F8D5) and APC-NMT2 (clone 6C5E8); endogenous in cells; host or cells: patient peripheral blood mononuclear cells (CD4+, CD8+, CD19+, CD14+ populations)
T1 sequence (O60551 1-498): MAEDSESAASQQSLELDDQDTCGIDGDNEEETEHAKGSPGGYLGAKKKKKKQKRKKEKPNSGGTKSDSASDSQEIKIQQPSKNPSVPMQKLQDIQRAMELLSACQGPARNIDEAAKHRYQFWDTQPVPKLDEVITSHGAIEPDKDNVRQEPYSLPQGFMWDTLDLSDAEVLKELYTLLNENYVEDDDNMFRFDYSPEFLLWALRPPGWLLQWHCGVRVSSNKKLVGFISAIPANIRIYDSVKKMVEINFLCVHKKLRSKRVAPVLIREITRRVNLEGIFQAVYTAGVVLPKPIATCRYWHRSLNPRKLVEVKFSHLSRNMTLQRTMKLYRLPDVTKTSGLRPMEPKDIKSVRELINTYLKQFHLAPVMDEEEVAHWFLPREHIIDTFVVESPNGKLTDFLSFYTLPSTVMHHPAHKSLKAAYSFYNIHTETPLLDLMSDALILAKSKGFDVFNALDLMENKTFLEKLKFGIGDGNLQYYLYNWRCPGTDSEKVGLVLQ
The data set can be described thus: Flow cytometry of intracellular NMT2 level in PBMC populations. Format: in vivo. The protocol:
Peripheral blood was collected from the patient at each sampling point (Screen, Day 1, and Day 28 of treatment) by venipuncture according to normal phlebotomy practice in 2 × 8 mL BD Vacutainer® CPT™ Tubes. Samples were immediately mixed by gentle inversion 10 times and process for PBMC isolation within 1 h. After centrifugation (1800× g for 20 min) at room temperature (18–25 °C) in a swinging bucket rotor (swing-out head), the mononuclear cells and platelets (referred to as PBMC) were carefully collected as the whitish layer just above the polyester gel and under the plasma layer, transferred into 9 mL freezing media (8 mL Fetal Bovine Serum and 1 mL DMSO), and stored at −70 °C or below until flow cytometry analysis.
PBMC were recovered by centrifugation (400× g for 5 min), washed in RPMI culture media, resuspended in PBS, and prepared for FACS analysis. PBMC were first labeled with Zombie Aqua™ Fixable Viability kit (1/100, 20 min at 4 °C; BioLegend, San Diego, CA, USA) for exclusion of dead cells, blocked with Human TruStain FcX Fc receptor blocking solution (5/100, 10 min at room temperature, BioLegend), then stained for extracellular markers using antibodies ECD-CD3 (clone UCHT1) and PE-Cy7-CD4 (clone SFCI12T4D11) from Beckman Coulter (Missaugua, ON, Canada) PerCp-Cy5.5-CD8 (SK-1) and BV-785CD19 (clone HIB19) from BioLegend, and PE-CF594-CD14 (clone MΦPG) from BD Bioscience (Mississauga, ON, Canada) for 20 min at 4 °C. The cells were then fixed and permeabilized using the eBioscience Intracellular Fixation and Permeabilization buffer set (Invitrogen, Mississauga, ON, Canada) and stained for intracellular markers AF-488-HGAL (clone 1H1-A7, eBioscience), AF-488-Lyn (Lyn-01, ab1890, Abcam, Cambridge, UK), and homemade monoclonal antibodies AF-700-NMT1(clone 6F8D5) and APC-NMT2 (clone 6C5E8), as previously described, in parallel with relevant isotype controls for at least 30 min at 4 °C. Prior to applying in the test, intracellular antibodies were first labeled with different fluorochromes using Lightning-Link conjugation kits (Abcam) and titrated to achieve the best concentration. Finally, samples were acquired on a Fortessa X-20 flow cytometer (BD Bioscences, Faculty of Medicine and Dentistry Flow Cytometry Facility, University of Alberta). Data were analyzed using FlowJo software (TreeStar, Ashland, OR, USA, version 10.8).
Background: In flow cytometry, cells or beads pass a laser one at a time.

Where [5] appears, read: 20 mg oral, Day 1 single dose, plasma.

On to `Cc1c(NS(=O)(=O)c2c(Cl)cc(-c3ccnc(N4CCNCC4)c3)cc2Cl)c(CC(C)C)nn1C` [PCLX-001, 2,6-dichloro-N-(3-isobutyl-1,5-dimethyl-1H-pyrazol-4-yl)-4-(2-(piperazin-1-yl)pyridin-4-yl)benzenesulfonamide], for which the hERG interaction result in data set [1] is given as “no significant hERG interaction”. Besides, the “BTK modification and downstream signaling” value in data set [2] is given as “profoundly inhibited”. In addition, the AUC(0-inf) in data set [3] (human, plasma, po, 20 mg, 20 mg oral daily, Day 15, plasma, read-out: Day 15 AUC0–∞) came out at 2640 ng·h/mL; in data set [3] (human, plasma, po, 20 mg, 20 mg oral, first dose (Day 1), plasma, read-out: AUC0–∞), 2360 ng·h/mL. In addition, the Cmax came to 278 ng/mL in data set [3] (human, plasma, po, 20 mg, 20 mg oral, Day 1 single dose, plasma, read-out: Cmax) and 278.23 ng/mL in data set [3] (setting [5]). For the same compound, the half-life in data set [3] (human, plasma, po, 20 mg, 20 mg oral, single dose, read-out: T ½ (apparent terminal half-life) (converted)) was 16 h. In data set [3] (human, plasma, 20 mg oral, single dose), this compound had a mean residence time (MRT) of 18.6 h. In data set [3] (human, 20 mg oral, Day 1 single dose, plasma), the Tmax was found to be 1.1 h. In addition, the “Day 22 pre-dose plasma concentration” value in data set [3] (20 mg oral daily, Day 22 pre-dose (trough)) is 51.4 ng/mL. The “drug accumulation in plasma after repeated daily dosing” value in data set [3] (20 mg oral daily, first dose AUC vs day 15 AUC) is given as “without systemic accumulation of drug by day 15; also recorded: no evidence of drug accumulation”. The compound further came in with an AUC0-tlast in data set [3] (setting [5]) of 1701.33 ng·h/mL. Further, the AUMC in data set [3] (20 mg oral, single dose) is listed as 43,883.76 ng/mL.h^2. In data set [3] (20 mg oral, single dose), this compound returned a CLoral of 8.4 L/h. Also, the “T ½ (apparent terminal half-life)” value in data set [3] (20 mg oral, single dose) stood at 16.42 h. Also, the Vdss in data set [3] (20 mg oral, single dose) came to 156.49 L. In addition, the “change of NMT2 protein level in circulating blood mononuclear cells” value in data set [4] (20 mg daily, 28 days, all cell populations with the exception of monocytes) is on record as “no clear change; also recorded: very stable”. Further, the “NMT2 intracellular level, % of population ± CV, Day 28” value in data set [4] (CD4+ T cells, untreated: Screening 22.8, Day 1 25.7) worked out at 35.3 ± 0.36%; in data set [4] (CD8+ T cells, untreated: Screening 11, Day 1 12.7) it was 18.7 ± 0.33%; in data set [4] (CD14+ Monocytes, untreated: Screening 6.21, Day 1 6.7), 11.7 ± 0.17%; in data set [4] (CD19+ B cells, untreated: Screening 31.8, Day 1 29) it was 33.3 ± 0.24%. In addition, the “change of NMT2 protein level in monocytes” value in data set [4] (end of the first cycle) was “increased”.

By Cmax is commonly meant the peak of the concentration-time curve. The half-life is the time in which the quantity being followed falls by half. Usually MRT stands for the average time that molecules of a dose stay in the body. For orientation: Tmax means the time at which the peak concentration occurs.

The values are drawn from article PMC8947478, “Novel, First-in-Human, Oral PCLX-001 Treatment in a Patient with Relapsed Diffuse Large B-Cell Lymphoma” (Current Oncology, 2022).
